These results are taken from ChEMBL document CHEMBL3244168, “Synthesis and antitumor activity of preactivated isophosphamide analogues bearing modified alkylating functionalities” (J Med Chem, 1978).

Broadly, the ILS is how much longer treated animals lived than controls. Broadly, the MTD is the largest dose that counted as tolerated.

Structures are written as SMILES. Values after ≈ are worked out from the molar mass of the structure shown.

The test system of data set [1] is L1210. Nature of the data set: Cytotoxicity against mouse L1210 cells assessed as growth inhibition after 72 hrs. Format: functional. The following applies: L1210, 72 h, read-out: ED50 (the source's name).
Data set [2] deals with L1210. In words: Antileukemic activity against mouse L1210 cells allografted in ip dosed BDF1 mouse administered 24 hrs. The format is functional.
For data set [3], the system named is L1210. Nature of the data set: Ratio of ILSmax to ILS30 for antileukemic activity against mouse L1210 cells allografted in ip dosed BDF1 mouse. The format is functional.
The test system of data set [4] is L1210. Nature of the data set: Antileukemic activity against mouse L1210 cells allografted in ip dosed BDF1 mouse assessed as maximum tolerated dose for survival over 30 days administered 24 hrs. Format: functional.
For data set [5], the system named is Mus musculus. In words: Toxicity in BDF1 mouse allografted with mouse L1210 cells assessed as mortality at 80 mg/kg, ip administered 24 hrs measured within 30 days. Format: organism-based. More on the design: dose 80 mg/kg, route intraperitoneal. The following applies: in vivo.
Data set [6] relates to L1210. In words: Antileukemic activity against mouse L1210 cells allografted in BDF1 mouse assessed as mean survival time at 50 mg/kg, ip administered 24 hrs (Rvb 4.6 +/- 0.16 days). Format: functional. The conditions noted are these: route intraperitoneal.
The subject of data set [7] is L1210. In words: Antileukemic activity against mouse L1210 cells allografted in BDF1 mouse assessed as mean survival time at 100 mg/kg, ip administered 24 hrs (Rvb 4.6 +/- 0.16 days). The format is functional. The conditions noted are these: route intraperitoneal.
For data set [8], the system named is L1210. In words: Antileukemic activity against mouse L1210 cells allografted in BDF1 mouse assessed as mean survival time at 200 mg/kg, ip administered 24 hrs (Rvb 4.6 +/- 0.16 days). Format: functional. The conditions noted are these: route intraperitoneal.
Data set [9] has as its system L1210. In words: Antileukemic activity against mouse L1210 cells allografted in BDF1 mouse assessed as increase in life span at 50 mg/kg, ip administered 24 hrs relative to control. The format is functional. The conditions noted are these: route intraperitoneal.
Data set [10] concerns L1210. In words: Antileukemic activity against mouse L1210 cells allografted in BDF1 mouse assessed as increase in life span at 100 mg/kg, ip administered 24 hrs relative to control. The following applies: route intraperitoneal. The format is functional.
Data set [11] has as its system L1210. Nature of the data set: Antileukemic activity against mouse L1210 cells allografted in BDF1 mouse assessed as increase in life span at 200 mg/kg, ip administered 24 hrs relative to control. The format is functional. The conditions noted are these: route intraperitoneal.
In data set [12] the test system is L1210. In words: Antileukemic activity against mouse L1210 cells allografted in BDF1 mouse assessed as increase in life span at 400 mg/kg, ip administered 24 hrs relative to control.
Data set [13] concerns L1210. Nature of the data set: Antileukemic activity against mouse L1210 cells allografted in iv dosed BDF1 mouse assessed as survival over 60 days administered 24 hrs. Format: functional. The following applies: read-out: MED.
In data set [14] the test system is L1210. In words: Antileukemic activity against mouse L1210 cells allografted in ip dosed BDF1 mouse assessed as survival over 60 days administered 24 hrs. Format: functional. The following applies: read-out: MED.
Data set [15] relates to L1210. Nature of the data set: Antileukemic activity against mouse L1210 cells allografted in po dosed BDF1 mouse assessed as survival over 60 days administered 24 hrs. Format: functional. The following applies: read-out: MED.
The test system of data set [16] is L1210. Nature of the data set: Antileukemic activity against mouse L1210 cells allografted in iv dosed BDF1 mouse assessed as maximum tolerated dose for survival over 60 days administered 24 hrs. The format is functional.
The test system of data set [17] is L1210. In words: Antileukemic activity against mouse L1210 cells allografted in ip dosed BDF1 mouse assessed as maximum tolerated dose for survival over 60 days administered 24 hrs. Format: functional.
Data set [18] deals with L1210. Nature of the data set: Antileukemic activity against mouse L1210 cells allografted in po dosed BDF1 mouse assessed as maximum tolerated dose for survival over 60 days administered 24 hrs. Format: functional.
In data set [19] the test system is L1210. In words: Ratio of Cmax to Cmin for antileukemic activity against mouse L1210 cells allografted in iv dosed BDF1 mouse assessed as survival over 60 days. Format: functional.
Data set [20] deals with L1210. In words: Ratio of Cmax to Cmin for antileukemic activity against mouse L1210 cells allografted in ip dosed BDF1 mouse assessed as survival over 60 days. Format: functional.
For data set [21], the system named is L1210. In words: Ratio of Cmax to Cmin for antileukemic activity against mouse L1210 cells allografted in po dosed BDF1 mouse assessed as survival over 60 days. The format is functional.
The test system of data set [22] is Mus musculus. In words: Acute toxicity in iv dosed BDF1 mouse. Format: organism-based. The conditions noted are these: in vivo.
Data set [23] has as its system Mus musculus. Nature of the data set: Acute toxicity in ip dosed BDF1 mouse. The conditions noted are these: in vivo. Format: organism-based.
The subject of data set [24] is Mus musculus. In words: Acute toxicity in po dosed BDF1 mouse. The following applies: in vivo. The format is organism-based.
Data set [25] has as its system Rattus norvegicus. In words: Acute toxicity in iv dosed Wistar rat. The format is organism-based. The following applies: in vivo.
For data set [26], the system named is Rattus norvegicus. Nature of the data set: Acute toxicity in ip dosed Wistar rat. The format is organism-based. The conditions noted are these: in vivo.
Data set [27] relates to Rattus norvegicus. Nature of the data set: Acute toxicity in po dosed Wistar rat. Format: organism-based. The following applies: in vivo.
Data set [28] concerns L1210. In words: Antileukemic activity against mouse L1210 cells allografted in BDF1 mouse assessed as mean survival time at 20 mg/kg, ip administered 24 hrs (Rvb 4.6 +/- 0.16 days). The format is functional. The following applies: route intraperitoneal.
Data set [29] concerns L1210. In words: Antileukemic activity against mouse L1210 cells allografted in BDF1 mouse assessed as increase in life span at 20 mg/kg, ip administered 24 hrs relative to control. Format: functional. The conditions noted are these: route intraperitoneal.

Consider `CCS(=O)(=O)OCCN1C(OO)CCOP1(=O)N(C)CCCl` (stereo not drawn), for which, in the data set on L1210 [1], the EC50 came out at 1 µg/mL (≈ 2.63 µM). For the same molecule, the ILS30 in the data set on L1210 [2] was 5 mg/kg. The Ratio in the data set with L1210 [3] was found to be 14. For the same molecule, the ILSmax in the data set with L1210 [4] was 70 mg/kg.

As for `CN(CCOS(C)(=O)=O)P1(=O)OCCC(OO)N1CCCl` (stereo not drawn), the EC50 in the data set with L1210 [1] stood at 0.5 µg/mL (≈ 1.36 µM). Moreover, the ILS30 with L1210 [2] came to 3 mg/kg. Further, in the data set with L1210 [3], the Ratio was found to be 20. In addition, the ILSmax in the data set on L1210 [4] worked out at 60 mg/kg.

With `O=P1(NCCBr)OCCC(OO)N1CCBr` (stereo not drawn), the EC50 in the data set with L1210 [1] worked out at 2 µg/mL (≈ 5.24 µM). The molecule also had an ILS30 in the data set with L1210 [2] of 6 mg/kg. Also, the Ratio in the data set with L1210 [3] worked out at 12. Also, the ILSmax with L1210 [4] was 70 mg/kg.

Consider `CCN(CCCl)P1(=O)OCCC(OO)N1CCOS(C)(=O)=O` (stereo not drawn), for which the EC50 with L1210 [1] was 0.5 µg/mL (≈ 1.31 µM). In the data set on L1210 [2], this molecule came in with an ILS30 of 6 mg/kg. Besides, in the data set with L1210 [3], the Ratio worked out at 12. In addition, in the data set with L1210 [4], the ILSmax turned out to be 70 mg/kg.

For the molecule `CS(=O)(=O)OCCN1C(OO)CCOP1(=O)N(CCCl)CCCl` (stereo not drawn), in the data set on L1210 [1], the EC50 was 0.06 µg/mL (≈ 0.144 µM). For the same molecule, the ILS30 in the data set with L1210 [2] worked out at 10 mg/kg. Besides, in the data set with L1210 [3], the Ratio came to 8. Further, the ILSmax with L1210 [4] is 80 mg/kg. For the same molecule, in the data set with Mus musculus [5], the Activity result is “Toxic”.

On to `O=P1(N(CCCl)CCCl)NCCCO1` (stereo not drawn) [CYCLOPHOSPHAMIDE ANHYDROUS], for which the results for the MST in the data set on L1210 [6], with L1210 [7] and in the data set with L1210 [8] were 7.8 days, 12.4 days and greater than 18.9 days, respectively. Besides, in the data set with L1210 [9], the ILS at 50 mg/kg came to 68%. For the same molecule, the ILS at 100 mg/kg in the data set on L1210 [10] was determined as 169%. The increase in lifespan (ILS) at 200 mg/kg in the data set on L1210 [11] is greater than 310%. The increase in life span (ILS) at 400 mg/kg in the data set on L1210 [12] was greater than 283%. Besides, the results for the minimal effective dose in the data set with L1210 [13], with L1210 [14] and in the data set with L1210 [15] were 200 mg/kg, 100 mg/kg and 200 mg/kg, respectively. In addition, the MTD in the data set on L1210 [16], in the data set on L1210 [17] and in the data set on L1210 [18] was 200 mg/kg in each case. The Ratio in the data set with L1210 [19] came out at 1; with L1210 [20] it was 2; in the data set with L1210 [21] it was 1.

Regarding `O=P1(NCCCl)OCCC(OO)N1CCCl` (stereo not drawn), in the data set on L1210 [1], the EC50 amounted to 1.8 µg/mL (≈ 6.14 µM). The ILS30 with L1210 [2] is 15 mg/kg. For the same molecule, the Ratio is 7 in the data set with L1210 [3], 1.8 in the data set with L1210 [19], 2.3 in the data set on L1210 [20] and 1 in the data set on L1210 [21]. Further, in the data set with L1210 [4], the ILSmax worked out at 100 mg/kg. The LD10 worked out at 220 mg/kg with Mus musculus [22]; 220 mg/kg in the data set with Mus musculus [23]; 1000 mg/kg in the data set on Mus musculus [24]; 250 mg/kg with Rattus norvegicus [25]; 250 mg/kg in the data set with Rattus norvegicus [26]; 800 mg/kg in the data set on Rattus norvegicus [27]. Besides, the MST in the data set with L1210 [6] was 12.5 days; with L1210 [7] it was greater than 23.8 days; in the data set on L1210 [28], 8.9 days; in the data set with L1210 [8], greater than 26.5 days. The increase in life span (ILS) at 50 mg/kg in the data set with L1210 [9] is 172%. The increase in life span (ILS) at 100 mg/kg in the data set on L1210 [10] is greater than 416%. The ILS at 20 mg/kg in the data set on L1210 [29] was 93%. Also, the increase in lifespan (ILS) at 200 mg/kg in the data set on L1210 [11] was greater than 476%. Further, the values for the minimal effective dose with L1210 [13], in the data set on L1210 [14] and in the data set on L1210 [15] were 90 mg/kg, 30 mg/kg and 400 mg/kg, respectively. The maximum tolerated dose (MTD) with L1210 [16] is 160 mg/kg; with L1210 [17], 70 mg/kg; in the data set with L1210 [18], 400 mg/kg.

As for `CS(=O)(=O)OCCNP1(=O)OCCC(OO)N1CCOS(C)(=O)=O` (stereo not drawn), the EC50 with L1210 [1] came to 3.9 µg/mL (≈ 9.46 µM). In the data set with L1210 [2], the ILS30 came out at 25 mg/kg. Moreover, the Ratio with L1210 [3] is 2. Also, in the data set on L1210 [4], the ILSmax turned out to be 50 mg/kg.
